Assay results from ChEMBL document CHEMBL3784915, “Design and synthesis of novel benzo[d]oxazol-2(3H)-one derivatives bearing 7-substituted-4-enthoxyquinoline moieties as c-Met kinase inhibitors” (Eur J Med Chem, 2016).

molecular target: Hepatocyte growth factor receptor (Homo sapiens, UniProt P08581); test: Inhibition of N-terminal 6His-tagged human recombinant c-MET expressed in baculovirus infected Sf21 cells using poly Ala-Glu-Lys-Tyr (6:2:5:1) as substrate after 3 hrs by scintillation counting in presence of [33P]-ATP; details: not given
Sequence (P08581 whole entry): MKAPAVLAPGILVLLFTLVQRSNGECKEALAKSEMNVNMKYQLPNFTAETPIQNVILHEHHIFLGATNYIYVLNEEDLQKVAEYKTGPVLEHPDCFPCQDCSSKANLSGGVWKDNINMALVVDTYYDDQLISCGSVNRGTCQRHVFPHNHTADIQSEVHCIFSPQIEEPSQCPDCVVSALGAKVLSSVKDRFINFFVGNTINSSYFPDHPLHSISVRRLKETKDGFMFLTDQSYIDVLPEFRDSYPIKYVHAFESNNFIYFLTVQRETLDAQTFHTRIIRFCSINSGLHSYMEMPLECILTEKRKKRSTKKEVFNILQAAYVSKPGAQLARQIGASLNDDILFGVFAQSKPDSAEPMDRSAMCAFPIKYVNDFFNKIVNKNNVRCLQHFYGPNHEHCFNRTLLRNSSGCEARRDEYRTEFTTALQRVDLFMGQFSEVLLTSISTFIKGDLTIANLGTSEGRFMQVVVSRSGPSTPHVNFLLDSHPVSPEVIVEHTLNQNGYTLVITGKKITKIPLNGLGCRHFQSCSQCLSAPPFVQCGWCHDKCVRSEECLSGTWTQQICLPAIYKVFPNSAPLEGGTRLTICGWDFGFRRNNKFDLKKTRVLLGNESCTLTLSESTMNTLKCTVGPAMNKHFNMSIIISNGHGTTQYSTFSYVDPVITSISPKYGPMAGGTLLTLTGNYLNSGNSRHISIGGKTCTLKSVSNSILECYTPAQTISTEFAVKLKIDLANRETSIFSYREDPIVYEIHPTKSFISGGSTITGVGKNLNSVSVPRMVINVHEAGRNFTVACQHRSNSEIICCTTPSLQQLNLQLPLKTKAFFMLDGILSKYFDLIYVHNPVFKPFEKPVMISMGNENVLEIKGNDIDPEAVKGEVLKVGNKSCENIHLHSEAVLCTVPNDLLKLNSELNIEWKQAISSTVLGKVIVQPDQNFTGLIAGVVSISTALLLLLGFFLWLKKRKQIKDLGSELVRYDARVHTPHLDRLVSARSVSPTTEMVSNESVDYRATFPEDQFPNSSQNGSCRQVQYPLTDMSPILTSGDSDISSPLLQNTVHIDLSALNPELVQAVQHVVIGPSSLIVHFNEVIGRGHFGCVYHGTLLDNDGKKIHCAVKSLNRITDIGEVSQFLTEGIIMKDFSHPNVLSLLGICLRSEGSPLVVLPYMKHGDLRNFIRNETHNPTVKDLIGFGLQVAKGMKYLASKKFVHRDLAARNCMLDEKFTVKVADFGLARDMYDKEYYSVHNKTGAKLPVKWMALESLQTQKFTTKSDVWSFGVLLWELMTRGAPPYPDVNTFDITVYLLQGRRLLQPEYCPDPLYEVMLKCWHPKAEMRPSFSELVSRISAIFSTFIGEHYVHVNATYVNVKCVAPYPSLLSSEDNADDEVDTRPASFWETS

| Structure (SMILES) | IC50 [nM] |
| --- | --- |
| Cc1ccc2c(c1)oc(=O)n2Cc1cccc(NC(=O)OCCCN2CCOCC2)c1 | 1600 |

test system: not listed separately; test: cells; details: Homo sapiens, EBC-1, 72 h
Description: Cytotoxicity against human EBC1 cells assessed as inhibition of cell proliferation after 72 hrs by sulforhodamine B assay

| Structure (SMILES) | IC50 [nM] |
| --- | --- |
| COc1ccc2c(OCCn3c(=O)oc4ccc(-c5cnn(C)c5)cc43)ccnc2c1 | > 500 |
| Cc1ccc2c(c1)oc(=O)n2Cc1cccc(NC(=O)OCCCN2CCOCC2)c1 | 1600 |
| COc1ccc2c(OCCn3c(=O)oc4cc(OC)ccc43)ccnc2c1 | > 500 |
| COc1ccc2c(OCCn3c(=O)oc4cc(N)ccc43)ccnc2c1 | 160 |
| Cn1cc(-c2ccc3c(OCCn4c(=O)oc5cc(-c6cnn(C)c6)ccc54)ccnc3c2)cn1 | 5 |
| Cc1ccc2c(c1)oc(=O)n2CCOc1ccnc2cc(NCCCN3CCOCC3)ccc12 | 58 |
| Cc1ccc2c(c1)oc(=O)n2CCOc1ccnc2cc(OCCN3CCOCC3)ccc12 | 120 |
| Cc1ccc2c(c1)oc(=O)n2CCOc1ccnc2cc(-c3cnn(C)c3)ccc12 | 35 |
| COc1ccc2c(OCCn3c(=O)oc4cc(-c5cnn(C)c5)ccc43)ccnc2c1 | 100 |
| Cc1ccc2c(c1)oc(=O)n2CCOc1ccnc2cc(OCCCCN3CCOCC3)ccc12 | 330 |
| Cc1ccc2c(c1)oc(=O)n2CCOc1ccnc2cc(OCCCN3CCOCC3)ccc12 | 170 |
| COc1ccc2c(OCCn3c(=O)oc4ccc(F)cc43)ccnc2c1 | > 500 |
| COc1ccc2c(OCCn3c(=O)oc4ccc(C)cc43)ccnc2c1 | > 500 |
| COCCOc1ccc2c(OCCn3c(=O)oc4cc(C)ccc43)ccnc2c1 | > 500 |
| COc1ccc2c(OCCn3c(=O)oc4cc(F)ccc43)ccnc2c1 | > 500 |
| C[C@@H](Oc1cc(-c2cnn(C3CCNCC3)c2)cnc1N)c1c(Cl)ccc(F)c1Cl [CRIZOTINIB] | 44 |
| COc1ccc2c(OCCn3c(=O)oc4cc(N5CCOCC5)ccc43)ccnc2c1 | > 500 |
| Cc1ccc2c(c1)oc(=O)n2CCOc1ccnc2cc(OCCCN3CCCC3)ccc12 | > 500 |
| COc1ccc2c(OCCn3c(=O)oc4cc(C)ccc43)ccnc2c1 | > 500 |
| CN1CCN(CCCOC(=O)Nc2cccc(Cn3nc(-n4ccc5ccc(F)cc54)ccc3=O)c2)CC1 | 672 |
| Cc1ccc2c(c1)oc(=O)n2CCOc1ccnc2cc(OCCCN3CCN(C)CC3)ccc12 | 170 |
| COC(=O)c1ccc2oc(=O)n(CCOc3ccnc4cc(OC)ccc34)c2c1 | > 500 |
| COC(=O)c1ccc2c(c1)oc(=O)n2CCOc1ccnc2cc(OC)ccc12 | > 500 |
